# Experimental data as given in patent US10849875B2, “Cancer specific lipid targeted peptidomimetics” (University of Houston System, priority 2015, dated 2020).
# Entries after “also recorded” stand apart in the source; their conditions may differ. Positions of bridges follow the written chain, without caps; N, C: chain ends. Non-standard residues stand in square brackets, D forms with d. Residues, ends and D or L forms follow the SMILES beside them. Chains are numbered I, II in the order given. Gly(N-piperonyl) = O=C(O)CNCc1ccc2c(c1)OCO2; N(4-MeOBn)Gly = COc1ccc(CNCC(=O)O)cc1; Nrpe = C[C@@H](NCC(=O)O)c1ccccc1; Nlys = NCCCCNCC(=O)O
# Legend:
# [1] = system: HBEC30KT cells; experiment: MTS cell viability assay; type: cell-based, human
# Method: After confirming the binding and specificity of the PPS1 on HCC4017 lung cancer cells, whether this compound has any biological effects on HCC4017 lung cancer cells was assayed. The gold standard cell viability (MTS) assay was used. HCC4017 cells and HBEC30kt and HBEC3kt cells were grown in 96 well plates on day 1, then treated by serial dilution of PPS1 and control compound C462 on day 2, and the viable cell count was measured using MTS reagent on day 3. […] On one of the repetitive experiments of this assay, Cystinylated-PPS1 compound was included (FIG. 6A). This was the intermediate compound used to attach the FITC-malemide for binding assays described previously. […] The only difference between this Cystinylated-PPS1 and the original PPS1 compound was just a single cysteine amino acid at the C-terminal. […]
# A homo-dimeric version of PPS1 was synthesized. […] The resulting dimeric version of the PPS1 compound, PPS1D1 (FIG. 6C), and the analogous dimeric versions of scrambled PC2, PC2D1 (FIG. 6E), and control compound C462, PC462D1 (FIG. 82), were then evaluated for activity. […] As described above, HCC4017 cells and HBEC30kt and HBEC3kt cells were grown in 96 well plates on day 1, treated serial dilutions of PPS1, PPS1D1, C462 and C462D1 on day 2, and viable cell count was measured using MTS reagent on day 3. […]
# [2] = MTD studies of PPS1D1; set-up: species or system mice; conditions: mouse, in vivo
# Method: […] (MTD) studies were performed by injecting PPS1D1 into mice. […] In vivo localization studies were performed with biotinylated versions of PPS1D1 and PC462D1. Animals were injected intravenously with 100 μL of biotinylated PPS1D1 or PC462D1 (500 μg/mL) and sacrificed at 1 and 4 h post injection. Tissue was collected, snap frozen, and sectioned and the presence of the PPS1D1 and PC462D1 determined by streptavidin-Cy3.
# [3] = system: HCC4017 xenografts; experiment: Tumor burden effect on HCC4017 xenografts; type: in vivo, mice; conditions: initial data, heterogeneous tumors
# Method: The actual tumor burden effects of PPS1D1 on HCC4017 xenografts were studied. The study was planned with 4 groups. […] It took a long time to grow and created a very heterogeneous xenograft population. PPS1D1 treatment was performed, but due to the high heterogeneity of the tumors, most of the mice in every group had to be sacrificed as they reached the maximum allowed limits.
# [4] = system: H460 cells
# Method: Before moving to animal studies with PPS1D1, comprehensive validation of cytotoxic effect of PPS1D1 on H460 was performed (Fig: 13). The PS expression levels of H460 using FITC-Annexin V staining detected by FACS was checked. […] A magnetic bead pull down, cell proliferation assay, and flow cytometry were performed on the H460 cell line. PPS1D1 coated magnetic beads were incubated with the H460 cell line for 30 minutes. The supernatant was removed by immobilizing beads on side of the tube with a magnet. The number of cells bound to beads were counted with a hemocytometer. […] Cell proliferation assays on a H460 cell line were performed by treating them with PPS1D1, PPS1, and the control compound, PC462D1. […] Binding and cytotoxicity of fluoresceinated PPS1D1 was examined using flow cytometry. Efficiency of PPS1D1 cytotoxicity on H460 cancer cells at different concentrations with 1 hour incubation with PPS1D1 was examined. Assays were performed to determine whether there were cells that were double positive for FITC (bound to PPS1D1) and PI, to evaluate cell viability. […]
# Experimental procedure 10: MTS viability assay on H460 cells. […] On day 5, 20 μl of CellTiter 96® AQueous One Solution Cell Proliferation Assay (Promega, Wis.) was added to each well and absorbance was measured at 490 nm using a plate reader 2 hours after treatment.
smiles,measurement,setting,value
COc1ccc(CN(CC(=O)N(CCCCN)CC(=O)N[C@@H](CCCCN)C(=O)N[C@H](CCCCN)C(=O)N[C@@H](CCSC)C(=O)NCCCC[C@H](NC(=O)[C@H](CCSC)NC(=O)[C@@H](CCCCN)NC(=O)[C@H](CCCCN)NC(=O)CN(CCCCN)C(=O)CN(Cc2ccc(OC)cc2)C(=O)CN(C(=O)CN(Cc2ccc3c(c2)OCO3)C(=O)CN[C@H](C)c2ccccc2)[C@H](C)c2ccccc2)C(N)=O)C(=O)CN(C(=O)CN(Cc2ccc3c(c2)OCO3)C(=O)CN[C@H](C)c2ccccc2)[C@H](C)c2ccccc2)cc1 [PPS1D1] (I: H-[Nrpe][Gly(N-piperonyl)][Nrpe][N(4-MeOBn)Gly][Nlys]K[dK]MK-NH2 / II: H-[Nrpe][Gly(N-piperonyl)][Nrpe][N(4-MeOBn)Gly][Nlys]K[dK]M; amide I:9-II:C; N-terminus assumed),effect on normal HBEC30KT cells,[1]; 1 and 20 μM,no effect
same,activity on normal HBEC30KT cells,[1]; serial dilutions,did not have any activity; also recorded: no cytotoxicity
same,MTD,[2]; mice bearing subcutaneous HCC4017 xenografts,1 mg/kg
same,MTD,[2]; nontumor bearing animals,5 mg/kg
same,tumor growth,[3],capable of reducing the tumor growth
same,effect on H460 cells,"[4]; MTS / cell proliferation, increasing concentrations",very potent in inhibiting growth
same,concentration at which most cytotoxicity was seen,"[4]; cell proliferation assay, H460",≥ 10 µM
